Common to all, as to type: functional, cell membranes, Membrane vesicle
Series [1] has as its target T1, MRP4 (ATP-binding cassette sub-family C member 4) (Homo sapiens, UniProt O15439).
T1 sequence (O15439 whole entry): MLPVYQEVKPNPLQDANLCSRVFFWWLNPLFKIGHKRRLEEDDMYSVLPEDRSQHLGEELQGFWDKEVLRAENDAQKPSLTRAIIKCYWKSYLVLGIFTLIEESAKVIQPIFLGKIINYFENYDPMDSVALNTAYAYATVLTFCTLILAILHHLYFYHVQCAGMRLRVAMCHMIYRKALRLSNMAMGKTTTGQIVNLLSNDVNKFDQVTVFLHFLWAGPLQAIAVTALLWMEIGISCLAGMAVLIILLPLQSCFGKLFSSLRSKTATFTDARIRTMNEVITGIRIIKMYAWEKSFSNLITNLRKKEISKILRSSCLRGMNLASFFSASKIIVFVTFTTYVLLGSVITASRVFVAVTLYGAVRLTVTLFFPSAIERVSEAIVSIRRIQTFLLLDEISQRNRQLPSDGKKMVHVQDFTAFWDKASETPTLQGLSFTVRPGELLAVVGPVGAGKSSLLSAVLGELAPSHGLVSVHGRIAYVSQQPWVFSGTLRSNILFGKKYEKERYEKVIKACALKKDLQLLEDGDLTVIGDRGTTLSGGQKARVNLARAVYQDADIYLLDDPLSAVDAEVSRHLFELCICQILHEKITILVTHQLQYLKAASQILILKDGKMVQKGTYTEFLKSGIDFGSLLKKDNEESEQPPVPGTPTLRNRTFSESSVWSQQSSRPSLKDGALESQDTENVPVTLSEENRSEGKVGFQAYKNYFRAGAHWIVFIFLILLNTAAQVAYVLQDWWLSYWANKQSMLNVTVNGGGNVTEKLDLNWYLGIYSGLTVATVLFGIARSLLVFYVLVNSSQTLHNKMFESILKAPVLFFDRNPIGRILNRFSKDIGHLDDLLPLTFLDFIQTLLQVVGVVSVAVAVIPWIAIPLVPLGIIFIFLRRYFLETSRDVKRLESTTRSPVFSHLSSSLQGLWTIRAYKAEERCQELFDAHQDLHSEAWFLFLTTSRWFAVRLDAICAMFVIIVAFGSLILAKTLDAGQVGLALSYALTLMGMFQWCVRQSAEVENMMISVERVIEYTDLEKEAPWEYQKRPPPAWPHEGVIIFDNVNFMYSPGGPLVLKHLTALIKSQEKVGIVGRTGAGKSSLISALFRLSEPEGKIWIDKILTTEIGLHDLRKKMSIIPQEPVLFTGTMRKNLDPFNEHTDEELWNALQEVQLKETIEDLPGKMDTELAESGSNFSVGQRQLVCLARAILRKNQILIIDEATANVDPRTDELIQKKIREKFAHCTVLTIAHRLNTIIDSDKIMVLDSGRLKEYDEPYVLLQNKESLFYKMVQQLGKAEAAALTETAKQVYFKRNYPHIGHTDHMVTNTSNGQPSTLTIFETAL
The series is described as follows: TP_TRANSPORTER: inhibition of MTX uptake (MTX: 20 uM, Sildenafil: 10 uM) in membrane vesicles from MRP4-expressing Sf9 cells. Also on record: scale not given: the % may be the effect or the level left. The settings on record: probe MTX (20 uM), read-out: Activity.

Series [2] addresses T1, MRP4 (ATP-binding cassette sub-family C member 4). The series is described as follows: TP_TRANSPORTER: inhibition of MTX uptake (MTX: 20 uM, cGMP: 300 uM) in membrane vesicles from MRP4-expressing Sf9 cells. Also on record: scale not given: the % may be the effect or the level left. The conditions noted are these: probe MTX (20 uM), read-out: Activity.
The target is the same in series [3]. Nature of the series: TP_TRANSPORTER: inhibition of MTX uptake (MTX: 20 uM, Verapamil: 30 uM) in membrane vesicles from MRP4-expressing Sf9 cells. Also on record: scale not given: the % may be the effect or the level left. The settings on record: probe MTX (20 uM), read-out: Activity.
Series [4] has the same target. Nature of the series: TP_TRANSPORTER: inhibition of MTX uptake (MTX: 20 uM, E217betaG: 30 uM) in membrane vesicles from MRP4-expressing Sf9 cells. Also on record: scale not given: the % may be the effect or the level left. The settings on record: probe MTX (20 uM), read-out: Activity.
For series [5] the target is unchanged. The series is described as follows: TP_TRANSPORTER: inhibition of MTX uptake (MTX: 20 uM, Folic acid: 300 uM) in membrane vesicles from MRP4-expressing Sf9 cells. The settings on record: probe MTX (20 uM), read-out: Activity. Also on record: scale not given: the % may be the effect or the level left.
The target is the same in series [6]. Nature of the series: TP_TRANSPORTER: inhibition of MTX uptake (MTX: 20 uM, Leucovorin: 300 uM) in membrane vesicles from MRP4-expressing Sf9 cells. Also on record: scale not given: the % may be the effect or the level left. The conditions noted are these: probe MTX (20 uM), read-out: Activity.
For series [7] the target is unchanged. The series is described as follows: TP_TRANSPORTER: inhibition of MTX uptake (MTX: 20 uM, MK571: 1 uM) in membrane vesicles from MRP4-expressing Sf9 cells. Also on record: scale not given: the % may be the effect or the level left. The conditions noted are these: probe MTX (20 uM), read-out: Activity.
Series [8] has the same target. The series is described as follows: TP_TRANSPORTER: inhibition of MTX uptake (MTX: 20 uM, Probenecid: 300 uM) in membrane vesicles from MRP4-expressing Sf9 cells. Also on record: scale not given: the % may be the effect or the level left. The settings on record: probe MTX (20 uM), read-out: Activity.
Series [9] has the same target. The series is described as follows: TP_TRANSPORTER: inhibition of MTX uptake (MTX: 20 uM, Sulfinpyrazone: 300 uM) in membrane vesicles from MRP4-expressing Sf9 cells. Also on record: scale not given: the % may be the effect or the level left. The settings on record: probe MTX (20 uM), read-out: Activity.
The target is the same in series [10]. Nature of the series: TP_TRANSPORTER: inhibition of MTX uptake (MTX: 20 uM, Trequinsin: 10 uM) in membrane vesicles from MRP4-expressing Sf9 cells. Also on record: scale not given: the % may be the effect or the level left. The settings on record: probe MTX (20 uM), read-out: Activity.
Series [11] has the same target. Nature of the series: TP_TRANSPORTER: inhibition of MTX uptake (MTX: 20 uM, PSC-833: 10 uM) in membrane vesicles from MRP4-expressing Sf9 cells. The conditions noted are these: probe MTX (20 uM), read-out: Activity. Also on record: scale not given: the % may be the effect or the level left.
Series [12] has the same target. The series is described as follows: TP_TRANSPORTER: inhibition of MTX uptake (MTX: 20 uM, Zaprinast: 10 uM) in membrane vesicles from MRP4-expressing Sf9 cells. The settings on record: probe MTX (20 uM), read-out: Activity. Also on record: scale not given: the % may be the effect or the level left.
Substrate in series [13]: Nc1nc2c(c(=O)[nH]1)N(C=O)C(CNc1ccc(C(=O)N[C@@H](CCC(=O)O)C(=O)O)cc1)CN2
The series is described as follows: (§1) TP_TRANSPORTER: uptake in membrane vesicles from MRP4-expressing Sf9 cells.

Substrate in series [14]: Nc1nc2ncc(CNc3ccc(C(=O)N[C@@H](CCC(=O)O)C(=O)O)cc3)nc2c(=O)[nH]1
The description is as §1.

In the case of `CCCc1nn(C)c2c(=O)[nH]c(-c3cc(S(=O)(=O)N4CCN(C)CC4)ccc3OCC)nc12`, in series [1], the activity at 10 µM is 46%.

Turning to `Nc1nc2c(ncn2[C@@H]2O[C@@H]3COP(=O)(O)O[C@H]3[C@H]2O)c(=O)[nH]1`, the activity at 300 µM in series [2] turned out to be 46.5%.

Regarding `COc1ccc(CCN(C)CCCC(C#N)(c2ccc(OC)c(OC)c2)C(C)C)cc1OC` (centres undefined), the activity at 30 µM in [3] came to 53.8%.

Consider `C[C@]12CC[C@@H]3c4ccc(O)cc4CC[C@H]3[C@@H]1CC[C@@H]2O[C@@H]1O[C@H](C(=O)O)[C@@H](O)[C@H](O)[C@H]1O` [ESTRADIOL 17B GLUCURONIDE], for which the activity at 30 µM in [4] is 39.9%.

Turning to `Nc1nc2ncc(CNc3ccc(C(=O)N[C@@H](CCC(=O)O)C(=O)O)cc3)nc2c(=O)[nH]1` [FOLIC ACID], the activity at 300 µM in [5] turned out to be 45%.

As to `Nc1nc2c(c(=O)[nH]1)N(C=O)C(CNc1ccc(C(=O)N[C@@H](CCC(=O)O)C(=O)O)cc1)CN2` (some centres undefined) [LEUCOVORIN], the activity at 300 µM in series [6] was 71.2%.

Consider `CN(C)C(=O)CCSC(SCCC(=O)O)c1cccc(/C=C/c2ccc3ccc(Cl)cc3n2)c1` (centres undefined) [MK-571], for which, in [7], the activity at 1 µM amounted to 56.4%.

As to `CCCN(CCC)S(=O)(=O)c1ccc(C(=O)O)cc1` [PROBENECID], the activity at 300 µM in series [8] was found to be 49.4%.

In the case of `O=C1C(CC[S+]([O-])c2ccccc2)C(=O)N(c2ccccc2)N1c1ccccc1` (centres undefined) [SULFINPYRAZONE], in series [9], the activity at 300 µM turned out to be 23.3%.

Consider `COc1cc2c(cc1OC)-c1c/c(=N\c3c(C)cc(C)cc3C)n(C)c(=O)n1CC2` [TREQUINSIN], for which, in [10], the activity at 10 µM is 25.7%.

`C/C=C/C[C@@H](C)C(=O)[C@H]1C(=O)N[C@@H](C(C)C)C(=O)N(C)CC(=O)N(C)[C@@H](CC(C)C)C(=O)N[C@@H](C(C)C)C(=O)N(C)[C@@H](CC(C)C)C(=O)N[C@@H](C)C(=O)N[C@H](C)C(=O)N(C)[C@@H](CC(C)C)C(=O)N(C)[C@@H](CC(C)C)C(=O)N(C)[C@@H](C(C)C)C(=O)N1C` [VALSPODAR]: the activity at 10 µM in series [11] amounted to 56.4%.

For `CCCOc1ccccc1-c1nc2nn[nH]c2c(=O)[nH]1` [ZAPRINAST], the activity at 10 µM in [12] was 34.1%.

B1: ATP-binding cassette sub-family C member 4 (Homo sapiens) (protein)
chain: MLPVYQEVKPNPLQDANLCSRVFFWWLNPLFKIGHKRRLEEDDMYSVLPEDRSQHLGEELQGFWDKEVLRAENDAQKPSLTRAIIKCYWKSYLVLGIFTLIEESAKVIQPIFLGKIINYFENYDPMDSVALNTAYAYATVLTFCTLILAILHHLYFYHVQCAGMRLRVAMCHMIYRKALRLSNMAMGKTTTGQIVNLLSNDVNKFDQVTVFLHFLWAGPLQAIAVTALLWMEIGISCLAGMAVLIILLPLQSCFGKLFSSLRSKTATFTDARIRTMNEVITGIRIIKMYAWEKSFSNLITNLRKKEISKILRSSCLRGMNLASFFSASKIIVFVTFTTYVLLGSVITASRVFVAVTLYGAVRLTVTLFFPSAIERVSEAIVSIRRIQTFLLLDEISQRNRQLPSDGKKMVHVQDFTAFWDKASETPTLQGLSFTVRPGELLAVVGPVGAGKSSLLSAVLGELAPSHGLVSVHGRIAYVSQQPWVFSGTLRSNILFGKKYEKERYEKVIKACALKKDLQLLEDGDLTVIGDRGTTLSGGQKARVNLARAVYQDADIYLLDDPLSAVDAEVSRHLFELCICQILHEKITILVTHQLQYLKAASQILILKDGKMVQKGTYTEFLKSGIDFGSLLKKDNEESEQPPVPGTPTLRNRTFSESSVWSQQSSRPSLKDGALESQDTENVPVTLSEENRSEGKVGFQAYKNYFRAGAHWIVFIFLILLNTAAQVAYVLQDWWLSYWANKQSMLNVTVNGGGNVTEKLDLNWYLGIYSGLTVATVLFGIARSLLVFYVLVNSSQTLHNKMFESILKAPVLFFDRNPIGRILNRFSKDIGHLDDLLPLTFLDFIQTLLQVVGVVSVAVAVIPWIAIPLVPLGIIFIFLRRYFLETSRDVKRLESTTRSPVFSHLSSSLQGLWTIRAYKAEERCQELFDAHQDLHSEAWFLFLTTSRWFAVRLDAICAMFVIIVAFGSLILAKTLDAGQVGLALSYALTLMGMFQWCVRQSAEVENMMISVERVIEYTDLEKEAPWEYQKRPPPAWPHEGVIIFDNVNFMYSPGGPLVLKHLTALIKSQEKVGIVGRTGAGKSSLISALFRLSEPEGKIWIDKILTTEIGLHDLRKKMSIIPQEPVLFTGTMRKNLDPFNEHTDEELWNALQEVQLKETIEDLPGKMDTELAESGSNFSVGQRQLVCLARAILRKNQILIIDEATANVDPRTDELIQKKIREKFAHCTVLTIAHRLNTIIDSDKIMVLDSGRLKEYDEPYVLLQNKESLFYKMVQQLGKAEAAALTETAKQVYFKRNYPHIGHTDHMVTNTSNGQPSTLTIFETAL
In general, Km refers to the concentration of substrate that gives half-maximal velocity. For B1, the Km was determined as 640 µM in [13] and 170 µM in series [14].

Source of the values: ChEMBL document CHEMBL2074469, “Analysis of methotrexate and folate transport by multidrug resistance protein 4 (ABCC4): MRP4 is a component of the methotrexate efflux system” (Cancer Res, 2002).
